Test results taken from patent publication US10787413B2, “Derivatives of curcuminoids and use thereof as an anticancer agent” (CHINA MEDICAL UNIVERSITY, priority 2016, dated 2020).
Read-outs that look alike come from different tables or passages of the source.

Key:
[1] = test system: MDA-MB-231 breast cancer cell; assay: MTT cell viability assay, MDA-MB-231 breast cancer cell; assay type: cell-based, human
Experimental: (§1) Cell viability was evaluated by measuring the reduction in MTT to yield blue formazan. Cells were cultured in 96-well plates, allowed to attach overnight, and then treated with compounds. After treatment, MTT solution (1 mg/ml) was added to each well, and plates were incubated for another 4 h.

[2] = test system: HCT-116 colon cancer cell; assay: MTT cell viability assay, HCT-116 colon cancer cell; assay type: cell-based
Experimental: as §1, with “h. Medium were removed, blue formazan was dissolved in DMSO, and the absorbance was read at 570 nm^20.” for “h.”

[3] = test system: PC3 prostate cancer cell; assay: MTT cell viability assay, PC3 prostate cancer cell; assay type: cell-based
Experimental: as §1, with “h. Medium were removed, blue formazan was dissolved in DMSO, and the absorbance was read at 570 nm^20.” for “h.”

[4] = MDA-MB-231, treated 24 hours, read-out: IC50 24 hours
[5] = MDA-MB-231, treated 48 hours, read-out: IC50 48 hours
[6] = MDA-MB-231, treated 72 hours, read-out: IC50 72 hours
[7] = HCT-116, treated 24 hours, read-out: IC50 24 hours
[8] = HCT-116, treated 48 hours, read-out: IC50 48 hours
[9] = HCT-116, treated 72 hours, read-out: IC50 72 hours
[10] = PC-3, treated 24 hours, read-out: IC50 24 hours
[11] = PC-3, treated 48 hours, read-out: IC50 48 hours
[12] = PC-3, treated 72 hours, read-out: IC50 72 hours
[13] = Homo sapiens, MDA-MB-231, 24 h, MDA-MB-231, treated 24 hours, read-out: IC50 24 hours
[14] = Homo sapiens, MDA-MB-231, 48 h, MDA-MB-231, treated 48 hours, read-out: IC50 48 hours
[15] = Homo sapiens, MDA-MB-231, 72 h, MDA-MB-231, treated 72 hours, read-out: IC50 72 hours
[16] = Homo sapiens, HCT-116, treated 24 hours, read-out: IC50 24 hours
[17] = Homo sapiens, HCT-116, treated 48 hours, read-out: IC50 48 hours
[18] = Homo sapiens, HCT-116, treated 72 hours, read-out: IC50 72 hours

Compound	IC50 [1, 6] [µM]	IC50 [3, 10] [µM]	IC50 [3, 11] [µM]	IC50 [3, 12] [µM]	IC50 [1, 13] [µM]	IC50 [1, 14] [µM]	IC50 [1, 15] [µM]	IC50 [2, 16] [µM]	IC50 [2, 17] [µM]	IC50 [2, 18] [µM]	IC50 [1, 4] [µM]	IC50 [1, 5] [µM]	IC50 [2, 7] [µM]	IC50 [2, 8] [µM]	IC50 [2, 9] [µM]
O=C(/C=C/c1ccc(O)cc1)CC(=O)/C=C/c1ccc(O)cc1 [Bisdemethoxycurcumin, bisdemethoxycurcumin, reference compound]	27.5 ± 0.42	> 100	28.5 ± 1.09	26.9 ± 4.36							> 100	26.92 ± 0.19	> 100	29.6 ± 0.78	23.7 ± 2.43
CCC(CO)(CO)C(=O)Oc1ccc(/C=C/C(=O)/C=C(O)/C=C/c2ccc(OC(=O)C(CC)(CO)CO)c(OC)c2)cc1OC [Compound 22a, ((1E,3Z,6E)-3-Hydroxy-1-oxohepta-1,3,6-triene-1,7-diyl)bis(2-methoxy-4,1-phenylene) bis(2,2-bis(hydroxymethyl)butanoate)]	2	6.91 ± 0.67	5.12 ± 0.29	4.21 ± 0.14							4.71 ± 0.29	2.56 ± 0.18	5.82 ± 0.56	2.4 ± 0.32	1.34 ± 0.04
CCC(CO)(CO)C(=O)Oc1cc(/C=C/C(=O)/C=C(O)/C=C/c2ccc(OC)c(O)c2)ccc1OC [Compound 25]	3.85	15.9 ± 2.23	8.74 ± 0.01	7.03 ± 0.12							9.64 ± 0.07	4.94 ± 0.03	7.62 ± 0.41	4.77 ± 0.1	3.64 ± 0.03
CC(CO)(CO)C(=O)Oc1ccc(/C=C/C(=O)CC(=O)/C=C/c2ccc(OC(=O)C(C)(CO)CO)c(OC(F)(F)F)c2)cc1OC(F)(F)F [Compound 28, ((1E,6E)-3,5-dioxohepta-1,6-diene-1,7-diyl)bis(2-(trifluoromethoxy)-4,1-phenylene) bis(3-hydroxy-2-(hydroxymethyl)-2-methylpropanoate)]		67.1 ± 3.39	53.9 ± 3.01	30.2 ± 2.37	16.6 ± 3.04	8.6 ± 0.74	7.78 ± 0.09	8.94 ± 0.66	7.11 ± 0.07	6.27 ± 0.1					
CCC(CO)(CO)C(=O)Oc1ccc(/C=C/C(=O)CC(=O)/C=C/c2ccc(OC(=O)C(CC)(CO)CO)c(OC(F)(F)F)c2)cc1OC(F)(F)F [Compound 29, ((1E,6E)-3,5-dioxohepta-1,6-diene-1,7-diyl)bis(2-(trifluoromethoxy)-4,1-phenylene) bis(2,2-bis(hydroxymethyl)butanoate)]		37 ± 0.56	29.7 ± 2.83	8.1 ± 1.56	9.48 ± 0.44	7.79 ± 0.61	7.22 ± 0.41	7.43 ± 0.1	4.69 ± 0.49	4.38 ± 0.26					
COc1cc(/C=C/C(=O)/C=C(O)/C=C/c2cc(OC)c(OC(=O)C(C)(CO)CO)c(OC)c2)cc(OC)c1OC(=O)C(C)(CO)CO [Compound 30, ((1E,3Z,6E)-3-hydroxy-5-oxohepta-1,3,6-triene-1,7-diyl)bis(2,6-dimethoxy-4,1-phenylene) bis(3-hydroxy-2-(hydroxymethyl)-2-methylpropanoate)]		7.79 ± 1.42	7.7 ± 0.87	3.14 ± 0.33	17.5 ± 2.85	8.9 ± 1.28	6.19 ± 0.04	8.34 ± 0.83	4.77 ± 0.44	5.18 ± 0.76					
CCc1cc(/C=C/C(=O)CC(=O)/C=C/c2cc(CC)c(OC(=O)C(C)(CO)CO)c(CC)c2)cc(CC)c1OC(=O)C(C)(CO)CO [Compound 31, ((1E,6E)-3,5-dioxohepta-1,6-diene-1,7-diyl)bis(2,6-diethyl-4,1-phenylene) bis(3-hydroxy-2-(hydroxymethyl)-2-methylpropanoate)]		19.9 ± 1.27	7.49 ± 0.18	4.14 ± 1.1	8.68 ± 0.07	7.4 ± 0.63	3.82 ± 0.03	7.21 ± 0.21	3.67 ± 0.01	3.51 ± 0.01					
COc1cc(/C=C/C(=O)C(Cc2ccccc2)(Cc2ccccc2)C(=O)/C=C/c2ccc(OC(=O)C(C)(CO)CO)c(OC)c2)ccc1OC(=O)C(C)(CO)CO [Compound 35c, ((1E,6E)-4,4-Dibenzyl-3,5-dioxohepta-1,6-dine-1,7-diyl)bis(2-methoxy-4,1-phenylene) bis(3-hydroxy-2-(hydroxymethyl)-2-methylpropanoate)]	2.11 ± 0.04	17.59 ± 0.14	9.09 ± 0.99	7.28 ± 0.5							6.03 ± 2.52	2.45 ± 0.24	12.9 ± 2.03	7.66 ± 0.61	3.88 ± 0.16
C#CCC(CC#C)(C(=O)/C=C/c1ccc(OC(=O)C(C)(CO)CO)c(OC)c1)C(=O)/C=C/c1ccc(OC(=O)C(C)(CO)CO)c(OC)c1 [Compound 35d, ((1E,6E)-3,5-Dioxo-4,4-di(prop-2-yn-1-yl)hepta-1,6-diene-1,7-diyl)bis(2-methoxy-4,1-phenylene) bis(3-hydroxy-2-(hydroxymethyl)-2-methylpropanoate)]		17.1 ± 1.74	11.5 ± 0.96	6.7 ± 0.75	28.5 ± 5.29		4.9	14.5 ± 1.01		3.92 ± 0.24					
COc1cc(/C=C/C(=O)C(COC(C)=O)(COC(C)=O)C(=O)/C=C/c2ccc(OC(=O)C(C)(CO)CO)c(OC)c2)ccc1OC(=O)C(C)(CO)CO [Compound 41, ((1E,6E)-4,4-bis(acetoxymethyl)-3,5-dioxohepta-1,6-diene-1,7-diyl)bis(2-methoxy-4,1-phenylene) bis(3-hydroxy-2-(hydroxymethyl)-2-methylpropanoate)]		65.2 ± 1.43	47.4 ± 2.65	32.8 ± 2.7	57.6 ± 1.59		3.69 ± 0.02	9.52 ± 0.06		5.4 ± 0.02					

Second part, led by results:

IC50 [1, 6] [µM]	IC50 [3, 10] [µM]	IC50 [3, 11] [µM]	IC50 [3, 12] [µM]	IC50 [1, 13] [µM]	IC50 [1, 14] [µM]	IC50 [1, 15] [µM]	IC50 [2, 16] [µM]	IC50 [2, 17] [µM]	IC50 [2, 18] [µM]	Compound	IC50 [1, 4] [µM]	IC50 [1, 5] [µM]	IC50 [2, 7] [µM]	IC50 [2, 8] [µM]	IC50 [2, 9] [µM]
2.98 ± 0.09	17.1 ± 1.81	7.49 ± 0.33	3.62 ± 0.11	7.74 ± 0.41	3.13 ± 0.04	2.89	4.12 ± 0.1	3.43 ± 0.2	2.63 ± 0.06	CC(CO)(CO)C(=O)Oc1ccc(/C=C/C(=O)C(C)(C)C(=O)/C=C/c2ccc(OC(=O)C(C)(CO)CO)cc2)cc1 [Compound 36, ((1E,6E)-4,4-Dimethyl-3,5-dioxohepta-1,6-diene-1,7-diyl)bis(4,1-phenylene) bis(3-hydroxy-2-(hydroxymethyl)-2-methylpropanoate)]					
	2.86 ± 0.83	1.59 ± 0.24	1.84 ± 0.12	7.6 ± 0.94	2.71 ± 0.23	2.7	5.9 ± 1.87	2.71 ± 0.39	1.26 ± 0.04	COc1ccc(/C=C/C(=O)C(C)(C)C(=O)/C=C/c2ccc(OC)c(OC(=O)C(C)(CO)CO)c2)cc1OC(=O)C(C)(CO)CO [Compound 37, ((1E,6E)-4,4-Dimethyl-3,5-dioxohepta-1,6-dien-1,7-diyl)bis(2-methoxy-5,1-phenylene) bis(3-hydroxy-2-(hydroxymethyl)-2-methylpropanoate)]					
	46.5 ± 0.48	34.9 ± 0.2	32.7 ± 0.56	47.3 ± 1.31	21.1 ± 1.01	17.5 ± 1.62	39.59 ± 0.23	18.4 ± 0.62	9.86 ± 0.01	COc1cc(/C=C/C(=O)CC(=O)/C=C/c2ccc(OC(=O)C(CO)(CO)CO)c(OC)c2)ccc1O [Compound 38a, 4-((1E,6E)-7-(4-hydroxy-3-methoxyphenyl)-3,5-dioxohept-1,6-den-1-yl)-2-methoxyphenyl 3-hydroxy-2,2-bis(hydroxymethyl)propanoate]					
	≥ 100	67.5 ± 1.25	63.94 ± 0.47	82.6 ± 1.67	64.8 ± 2.39	55.3 ± 3.2	75 ± 3.1	61.3 ± 2.85	43.7 ± 1.36	COc1cc(/C=C/C(=O)CC(=O)/C=C/c2ccc(OC(=O)C(CO)(CO)COC(=O)C(CO)(CO)CO)c(OC)c2)ccc1O [Compound 38b]					
	77.2 ± 2.34	61.2 ± 2.3	26.1 ± 0.81	> 100		9.02 ± 1.13	89.65 ± 0.49	8 ± 0.6	7.18 ± 0.68	COc1ccc(/C=C/C(=O)C(CO)(CO)C(=O)/C=C/c2ccc(OC)c(OC)c2)cc1OC [Compound 42, (1E,6E)-1,7-bis(3,4-dimethoxyphenyl)-4,4-bis(hydroxymethyl)hepta-1,6-diene-3,5-dione]					
	67.7 ± 1.76	52.2 ± 1.23	51.3 ± 0.39	83 ± 0.17		17.3 ± 0.1	64.7 ± 1.56		25.1 ± 0.5	COc1ccc(/C=C/C(=O)C(COC(=O)C(C)(CO)CO)(COC(=O)C(C)(CO)CO)C(=O)/C=C/c2ccc(OC)c(OC)c2)cc1OC [Compound 43, 2,2-bis((E)-3-(3,4-dimethoxyphenyl)acryloyl)propane-1,3-diylbis(3-hydroxy-2-(hydroxymethyl)-2-methylpropanoate)]					
	3.68 ± 0.11	3.07 ± 0.37	0.85 ± 0.07	7.21 ± 0.18	0.9 ± 0.03	0.61 ± 0.1	6.33 ± 1.01	3.66 ± 0.25	1.51 ± 0.55	COc1ccc(/C=C/C(=O)C(COC(C)=O)(COC(C)=O)C(=O)/C=C/c2ccc(OC)c(OC)c2)cc1OC [Compound 44, 2,2-bis((E)-3-(3,4-dimethoxyphenyl)acryloyl)propane-1,3-diyl diacetate]					
